Here are results for 67 compounds from ChEMBL document CHEMBL1131424 (J Med Chem, 1998).

The test deals with T1, 5-hydroxytryptamine receptor 1A (Rattus norvegicus, UniProt P19327).
T1 sequence (P19327 whole entry): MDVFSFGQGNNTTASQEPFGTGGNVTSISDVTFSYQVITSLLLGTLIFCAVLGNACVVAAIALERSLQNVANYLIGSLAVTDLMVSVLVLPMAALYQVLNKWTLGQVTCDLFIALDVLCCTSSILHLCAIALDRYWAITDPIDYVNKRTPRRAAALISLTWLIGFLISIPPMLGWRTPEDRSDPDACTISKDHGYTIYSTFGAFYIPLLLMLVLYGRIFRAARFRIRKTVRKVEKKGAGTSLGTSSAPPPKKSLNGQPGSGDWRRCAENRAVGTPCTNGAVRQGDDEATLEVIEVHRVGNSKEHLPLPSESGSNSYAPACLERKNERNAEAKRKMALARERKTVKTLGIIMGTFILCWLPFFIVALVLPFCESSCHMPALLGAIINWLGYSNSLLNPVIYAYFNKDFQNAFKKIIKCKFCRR
The experiment in a line: Binding affinity for rat cortex 5-hydroxytryptamine 1A receptor, by displacement of 0.2 nM [3H]8-OH-DPAT radioligand.

SMILES strings stand for the structures. Bounds are passed on as bounds.

For the compound `Cc1cccc(C(=O)N2CCC(CNCc3cccc(-n4cccn4)n3)CC2)c1`, the Ki (in general, the equilibrium dissociation constant of an inhibitor or competing ligand from its target) was 3.47 nM.
Then `O=C(c1ccc(Cl)cc1)N1CCC(CNCc2cccc(-n3cccn3)n2)CC1`, with 49 nM; and `O=C(c1ccc(Cl)c(Cl)c1)N1CCC(CNCc2cccc(Cl)n2)CC1`, with 4.57 nM.
In turn, `N#Cc1cccc(C(=O)N2CCC(CNCc3cccc(-n4cccn4)n3)CC2)c1` showed a Ki of 17.8 nM.
Then `N#Cc1cccc(CNCC2CCN(C(=O)c3ccc(Cl)c(Cl)c3)CC2)n1`, with 50.1 nM; and `O=C(c1ccc(Cl)c(Cl)c1)N1CCC(CNCc2cccc(F)n2)CC1`, with 8.91 nM.
With `O=C(c1ccccc1)N1CCC(CNCc2cccc(-n3cccn3)n2)CC1` the figure was 33.1 nM; with `O=C(c1ccc(Cl)c(Cl)c1)N1CCC(CNCc2cccc(-n3ccnc3)n2)CC1`, 7.41 nM; with `O=C(c1ccc(Cl)c(Cl)c1)N1CCC(CNCc2cccc(N3CCCC3)n2)CC1`, 1.58 nM.
Then `COc1cccc(CNCC2CCN(C(=O)c3ccc(Cl)c(Cl)c3)CC2)n1`, with 3.47 nM; and `CC(C)c1cccc(CNCC2CCN(C(=O)c3ccc(Cl)c(Cl)c3)CC2)n1`, with 0.631 nM.
Compound `Cc1cccc(CNCC2CCN(C(=O)c3ccc(Cl)c(Cl)c3)CC2)n1` had a Ki of 4.07 nM.
In turn, `O=C(c1ccc(Cl)c(Cl)c1)N1CCC(CNCc2cc(-n3cccn3)ccn2)CC1` showed an inhibition constant Ki of 646 nM.
The compound `O=C(c1ccc(Cl)c(Cl)c1)N1CCC(CNCCc2cccc(-n3cccn3)n2)CC1` gave a Ki of 3.55 nM.
With `CCOc1cccc(C(=O)N2CCC(CNCc3cccc(-n4cccn4)n3)CC2)c1` the figure was 10.7 nM; with `O=C(c1ccccc1Cl)N1CCC(CNCc2cccc(-n3cccn3)n2)CC1`, 132 nM; with `O=S(=O)(c1ccc(Cl)c(Cl)c1)N1CCC(CNCc2cccc(-n3cccn3)n2)CC1`, 200 nM.
With `Clc1ccc(CN2CCC(CNCc3cccc(-n4cccn4)n3)CC2)cc1Cl` the figure was 17.8 nM; with `O=C(c1ccc(F)c(Cl)c1)N1CCC(CNCc2cccc(-n3cccn3)n2)CC1`, 1.55 nM.
Then `NC(=O)c1cccc(CNCC2CCN(C(=O)c3ccc(Cl)c(Cl)c3)CC2)n1`, with 46.8 nM.
Take `O=C(c1ccc(Cl)c(Cl)c1)N1CCC(CNCCc2ccncc2)CC1`: the Ki was over 1000 nM.
On to `O=C(NCC#CCNCc1cccc(-n2cccn2)n1)c1ccc(Cl)c(Cl)c1`, for which the inhibition constant (Ki) is 245 nM.
On to `CN(CCCCNCc1cccc(-n2cccn2)n1)C(=O)c1ccccc1`, for which the affinity, expressed as Ki, was 170 nM.
Then `Cn1c(=O)cnn(CCCCNCc2cccc(-n3cccn3)n2)c1=O`, with 110 nM.
For `CCCN(C)c1cccc(CNCC2CCN(C(=O)c3ccc(Cl)c(Cl)c3)CC2)n1`, the Ki is 11.7 nM.
`CCCN(CCC)Cc1cccc(-n2cccn2)n1` had a Ki of over 10000 nM.
`CCCCOc1cccc(CNCC2CCN(C(=O)c3ccc(Cl)c(Cl)c3)CC2)n1` showed a Ki of 18.6 nM.
With `O=C(C1CCCCC1)N1CCC(CNCc2cccc(-n3cccn3)n2)CC1` the figure was 29.5 nM.
With `COc1ccc2[nH]cc(CCNCc3cccc(-n4cccn4)n3)c2c1` the figure was 661 nM; with `O=C(c1ccc(Cl)c(Cl)c1)N1CCC(CNCc2cccc(-n3cccc3)n2)CC1`, 4.27 nM.
Then `O=C(c1cccc(Cl)c1)N1CCC(CNCc2cccc(-n3cccn3)n2)CC1`, with 2.29 nM.
With `CN(C)c1cccc(CNCC2CCN(C(=O)c3ccc(Cl)c(Cl)c3)CC2)c1`, the Ki is 75.9 nM.
Turning to `COC(=O)c1ccc(C(=O)N2CCC(CNCc3cccc(-n4cccn4)n3)CC2)cc1Cl`, the inhibitory constant (Ki) was 166 nM.
As to `O=C(c1ccc(Cl)c(Cl)c1)N1CCC(CNCc2cccc(F)c2)CC1`, the Ki was 14.8 nM.
In turn, `O=C(c1ccc(Cl)c(Cl)c1)N1CCC(CNCc2cccc(-n3cccc3)c2)CC1` showed a Ki of 295 nM.
Then `Cc1cccc(C(=O)NCCCCNCc2cccc(-n3cccn3)n2)c1`, with 14.1 nM; and `O=C(c1cccc(C(F)(F)F)c1)N1CCC(CNCc2cccc(-n3cccn3)n2)CC1`, with 3.55 nM; and `O=C(c1ccc(Cl)c(Cl)c1)N1CCC(CNCc2cccc(-c3ncc[nH]3)n2)CC1`, with 2.69 nM.
With `O=C(c1ccc(Cl)c(Cl)c1)N1CCC(CNCc2cccc(-n3cccn3)n2)CC1` the figure was 1.66 nM; with `O=C(c1ccc(Cl)c(Cl)c1)N1CCC(CNCc2cccc(-c3cnco3)n2)CC1`, 0.933 nM; with `O=C(c1ccc(Cl)c(Cl)c1)N1CCC(CNCc2cccc(N3CCC3)n2)CC1`, 0.372 nM.
With `O=C(c1cc(Cl)cc(Cl)c1)N1CCC(CNCc2cccc(-n3cccn3)n2)CC1` the figure was 26.3 nM; with `O=C(c1ccc(Cl)c(Cl)c1)N1CCC(CNCCc2cccc(F)n2)CC1`, 3.16 nM.
With `O=C(c1ccc(Cl)c(Cl)c1)N1CCC(CNCCCc2ccccn2)CC1`, the affinity corresponds to a Ki of 42.7 nM.
On to `O=C(N1CCC(CNCc2cccc(-n3cccn3)n2)CC1)C12C[C@H]3C[C@@H](C1)C[C@@H](C2)C3`, for which the Ki is 13.2 nM.
With `O=C(c1ccc(Cl)c(Cl)c1)N1CCC(CNCCc2ccccn2)CC1` the figure was 1.2 nM.
Regarding `O=C(NCCNCc1cccc(-n2cccn2)n1)C12C[C@H]3C[C@@H](C1)C[C@@H](C2)C3`, the Ki is 27.5 nM.
`COc1ccc(C(=O)N2CCC(CNCc3cccc(-n4cccn4)n3)CC2)cc1Cl` gave a Ki of 9.12 nM.
Regarding `O=C(c1ccc(Cl)c(Cl)c1)N1CCC(CNCc2cc(Cl)ccn2)CC1`, the affinity, expressed as Ki, was 9.12 nM.
With `Cc1ccc(C(=O)N2CCC(CNCc3cccc(-n4cccn4)n3)CC2)cc1Cl`, the affinity, expressed as Ki, was 1.41 nM.
Take `O=C(c1ccc(Cl)c(Cl)c1)N1CCC(CNCc2cccc(-c3ccccc3)n2)CC1`: the affinity corresponds to a Ki of 7.41 nM.
Then `O=C(c1ccc(Cl)c(Cl)c1)N1CCCC(CNCc2cccc(-n3cccn3)n2)C1` (configuration not stated), with 407 nM; and `O=C(c1cccc(F)c1)N1CCC(CNCc2cccc(-n3cccn3)n2)CC1`, with 13.5 nM; and `CSc1cccc(CNCC2CCN(C(=O)c3ccc(Cl)c(Cl)c3)CC2)n1`, with 2.57 nM.
Then `C[S+]([O-])c1cccc(CNCC2CCN(C(=O)c3ccc(Cl)c(Cl)c3)CC2)n1` (configuration not stated), with 46.8 nM; and `O=C(c1ccc(Cl)c(Cl)c1)N1CCC(CNCc2cccc(-c3ccc[nH]3)n2)CC1`, with 6.03 nM.
As for `O=C(c1ccc(Cl)c(Cl)c1)N1CCC(CNCc2cccc(-c3ccco3)n2)CC1`, the Ki was 0.724 nM.
With `Fc1ccc(C(CCCNCc2cccc(-n3cccn3)n2)c2ccc(F)cc2)cc1` the figure was 151 nM; with `O=C(c1cccc(Cl)c1Cl)N1CCC(CNCc2cccc(-n3cccn3)n2)CC1`, 100 nM; with `O=C(c1ccc(Cl)c(Cl)c1)N1CCC(CNCc2cccc(-c3cccs3)n2)CC1`, 1.38 nM.
Take `CN(C)c1cccc(CNCC2CCN(C(=O)c3ccc(Cl)c(Cl)c3)CC2)n1`: the Ki is 1.41 nM.
As for `O=C(c1ccc(Cl)c(Cl)c1)N1CCC(CNCCc2cccnc2)CC1`, the Ki is 933 nM.
Then `O=C(c1ccc(Cl)c(Cl)c1)N1CCC(CNCc2cccnc2)CC1`, with 417 nM.
In the case of `CNc1cccc(CNCC2CCN(C(=O)c3ccc(Cl)c(Cl)c3)CC2)n1`, the affinity, expressed as Ki, was 1.74 nM.
`O=C(c1ccc(Cl)c(Cl)c1)N1CCC(CNCc2cccc(-c3cc[nH]n3)n2)CC1`: the Ki was 0.537 nM.
Then `O=C(c1ccc(Cl)c(Cl)c1)N1CCC(CNCc2cccc(-c3nccs3)n2)CC1`, with 0.347 nM.
With `O=C(c1ccc(Cl)c(Cl)c1)N1CCC(CNCc2ccccn2)CC1` the figure was 26.3 nM.
